Reference: patent US11046699B2, “Pyrazolo-pyrimidin-amino-cycloalkyl compounds and their therapeutic uses” (RAPT THERAPEUTICS, INC., priority 2018, dated 2021)
Counter-ions that a name gives are not always drawn. Like-named read-outs stand apart in the source and are kept apart here.

Molecular target: GCN2 (Homo sapiens, UniProt Q9P2K8)
Test: GCN2 enzymatic endpoint assay: phosphorylation of GFP-eIF2α measured by TR-FRET (Lanthascreen)
Type: biochemical
Outline: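 Phosphorylated eIF2α read by Lanthascreen TR-FRET (acceptor 520 nm over donor 495 nm) after EDTA stop. The reaction ran 90 min at room temperature on 80 nM GFP-eIF2α with 2 μM ATP.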

[1] = tested as described in Example 77, compound and/or hydrochloride, dihydrochloride or trifluoroacetic acid salt, read-out: IC 50 Activity

Sequence of GCN2 (Q9P2K8 whole entry): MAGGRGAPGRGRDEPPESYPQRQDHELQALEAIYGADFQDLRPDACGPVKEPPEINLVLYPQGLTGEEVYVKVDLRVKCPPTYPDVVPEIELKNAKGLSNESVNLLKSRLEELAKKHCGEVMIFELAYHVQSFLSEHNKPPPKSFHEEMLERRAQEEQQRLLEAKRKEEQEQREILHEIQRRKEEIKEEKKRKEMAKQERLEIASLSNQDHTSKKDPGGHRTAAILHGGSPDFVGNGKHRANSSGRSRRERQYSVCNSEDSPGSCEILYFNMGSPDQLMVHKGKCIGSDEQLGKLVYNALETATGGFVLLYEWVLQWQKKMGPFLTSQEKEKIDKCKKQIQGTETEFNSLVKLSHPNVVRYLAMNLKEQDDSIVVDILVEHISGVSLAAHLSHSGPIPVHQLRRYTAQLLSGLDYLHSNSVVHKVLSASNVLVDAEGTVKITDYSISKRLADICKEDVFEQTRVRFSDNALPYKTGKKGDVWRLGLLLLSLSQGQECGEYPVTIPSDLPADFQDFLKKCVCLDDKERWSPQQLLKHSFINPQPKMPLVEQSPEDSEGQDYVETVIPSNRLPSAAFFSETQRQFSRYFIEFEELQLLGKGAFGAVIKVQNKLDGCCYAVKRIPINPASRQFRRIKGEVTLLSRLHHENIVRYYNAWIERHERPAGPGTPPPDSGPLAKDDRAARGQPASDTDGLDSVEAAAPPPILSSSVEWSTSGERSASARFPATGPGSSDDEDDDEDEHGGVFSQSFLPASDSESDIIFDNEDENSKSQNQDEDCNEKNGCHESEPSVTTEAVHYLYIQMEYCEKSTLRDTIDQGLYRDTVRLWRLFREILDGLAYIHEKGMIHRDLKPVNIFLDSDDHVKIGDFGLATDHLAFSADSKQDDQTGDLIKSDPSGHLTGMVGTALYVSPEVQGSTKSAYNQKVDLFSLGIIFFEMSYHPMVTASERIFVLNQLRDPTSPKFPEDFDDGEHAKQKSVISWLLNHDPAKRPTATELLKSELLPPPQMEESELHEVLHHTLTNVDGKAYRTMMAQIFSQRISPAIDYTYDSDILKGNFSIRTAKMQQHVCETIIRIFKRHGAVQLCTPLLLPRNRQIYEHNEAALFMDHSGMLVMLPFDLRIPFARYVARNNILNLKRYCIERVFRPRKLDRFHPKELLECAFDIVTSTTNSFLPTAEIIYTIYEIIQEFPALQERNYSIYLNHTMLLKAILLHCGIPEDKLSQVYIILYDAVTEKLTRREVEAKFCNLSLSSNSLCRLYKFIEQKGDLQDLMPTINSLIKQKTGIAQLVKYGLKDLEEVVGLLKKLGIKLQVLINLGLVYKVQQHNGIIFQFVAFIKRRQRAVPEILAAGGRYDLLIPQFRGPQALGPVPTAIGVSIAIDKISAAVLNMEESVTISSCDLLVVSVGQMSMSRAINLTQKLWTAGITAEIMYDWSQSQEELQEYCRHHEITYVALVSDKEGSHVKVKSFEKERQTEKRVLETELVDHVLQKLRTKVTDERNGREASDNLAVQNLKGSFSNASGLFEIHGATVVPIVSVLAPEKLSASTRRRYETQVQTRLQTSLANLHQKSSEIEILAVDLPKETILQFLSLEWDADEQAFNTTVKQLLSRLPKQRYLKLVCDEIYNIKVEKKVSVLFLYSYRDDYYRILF

Row | Compound | IC50 [1] [nM] | IC50 (GCN2 biochemical IC50, 4 nM GCN2, 2 μM ATP, 80 nM GFP-eIF2α, 90 min RT, read-out: GCN2 activity) [nM]
1 | CNC(=O)[C@]1(C)CC[C@@H](Nc2ncc3c(Br)nn(-c4ccc(-c5ncco5)c(CNCC(F)F)c4)c3n2)C1 [(1R,3R)-3-[[3-bromo-1-[3-[(2,2-difluoroethylamino)methyl]-4-oxazol-2-yl-phenyl]pyrazolo[3,4-d]pyrimidin-6-yl]amino]-N,1-dimethyl-cyclopentane-carboxamide] | 25 to 200 | –
2 | CC1(C(=O)NCC(F)F)CC[C@@H](Nc2ncc3c(Br)nn(-c4cc(F)c5ncccc5c4)c3n2)C1 (stereo partly drawn) [(3R)-3-[[3-bromo-1-(8-fluoro-6-quinolyl)pyrazolo[3,4-d]pyrimidin-6-yl]amino]-N-(2,2-difluoroethyl)-1-methyl-cyclopentane-carboxamide] | 25 to 200 | –
3 | CC(C)N(CC(N)=O)C(=O)[C@@H]1CC[C@@H](Nc2ncc3c(Br)nn(-c4cc(F)c5ncccc5c4)c3n2)C1 [(1R,3R)-N-(2-amino-2-oxoethyl)-3-((3-bromo-1-(8-fluoroquinolin-6-yl)-1H-pyrazolo[3,4-d]pyrimidin-6-yl)amino)-N-isopropylcyclopentane-1-carboxamide] | 25 to 200 | –
4 | C[C@H](N)c1cc(Cl)cc(-n2nc(Br)c3cnc(N[C@@H]4CC[C@@](C)(CO)C4)nc32)c1 [[(1R,3R)-3-[[1-[3-[(1S)-1-aminoethyl]-5-chloro-phenyl]-3-bromo-pyrazolo [3,4-d]pyrimidin-6-yl]amino]-1-methyl-cyclopentyl]methanol hydrochloride] | 25 to 200 | –
5 | CCN(C)C(=O)[C@]1(C)CC[C@@H](Nc2ncc3c(Br)nn(-c4cc(F)c5ncccc5c4)c3n2)C1 [(1R,3R)-3-[[3-bromo-1-(8-fluoro-6-quinolyl)pyrazolo[3,4-d]pyrimidin-6-yl]amino]-N-ethyl-N,1-dimethyl-cyclopentanecarboxamide] | < 25 | –
6 | CNC(=O)[C@]1(C)CC[C@@H](Nc2ncc3c(Br)nn(-c4ccc5c(c4)N(C(=O)C4CNC4)CC5)c3n2)C1 [(1R,3R)-3-[[1-[1-(azetidine-3-carbonyl)indolin-6-yl]-3-bromo-pyrazolo[3,4-d]pyrimidin-6-yl]amino]-N,1-dimethyl-cyclopentanecarboxamide] | 25 to 200 | –
7 | Cc1nnc(-c2ccc(-n3nc(Br)c4cnc(NC5CC(P(C)(C)=O)C5)nc43)cc2CCC#N)s1 (centres unmarked) [3-[5-[3-bromo-6-[(3-dimethylphosphoryl-cyclobutyl)amino]pyrazolo[3,4-d]pyrimidin-1-yl]-2-(5-methyl-1,3,4-thiadiazol-2-yl)phenyl]propanenitrile] | 25 to 200 | –
8 | CNC(=O)[C@]1(C)CC[C@@H](Nc2ncc3c(Br)nn(-c4ccc(Cl)c([C@H](C)N)c4)c3n2)C1 [Example 65, (1R,3R)-3-((1-(3-((S)-1-aminoethyl)-4-chlorophenyl)-3-bromo-1H-pyrazolo[3,4-d]pyrimidin-6-yl)amino)-N,1-dimethylcyclopentane-1-carboxamide] | – | < 25
9 | CNC(=O)[C@]1(C)CC[C@@H](Nc2ncc3c(Br)nn(-c4ccc5c(c4)CCC(=O)N5CCO)c3n2)C1 [(1R,3R)-3-[[3-bromo-1-[1-(2-hydroxy-ethyl)-2-oxo-3,4-dihydroquinolin-6-yl]pyrazolo[3,4-d]pyrimidin-6-yl]amino]-N,1-dimethyl-cyclopentanecarboxamide] | 25 to 200 | –
10 | CNC(=O)CC1CC(Nc2ncc3c(Br)nn(-c4cc(CCN)c5ccccc5c4)c3n2)C1 (centres unmarked) [2-[3-[[1-[4-(2-aminoethyl)-2-naphthyl]-3-bromo-pyrazolo[3,4-d]pyrimidin-6-yl]amino]cyclobutyl]-N-methyl-acetamide; 2,2,2-trifluoroacetic acid] | 25 to 200 | –
11 | CNC(=O)[C@]1(C)CC[C@@H](Nc2ncc3c(Br)nn(-c4cc(CCCOC)c5c(c4)CCC(=O)N5C)c3n2)C1 [(1R,3R)-3-[[3-bromo-1-[8-(3-methoxy-propyl)-1-methyl-2-oxo-3,4-dihydro-quinolin-6-yl]pyrazolo[3,4-d]pyrimidin-6-yl]amino]-N,1-dimethyl-cyclopentane-carboxamide; 2,2,2-trifluoroacetic acid] | 25 to 200 | –
